From patent publication US9464280B1, “Beta-lactamases with improved properties for therapy” (priority 2014, dated 2016)
In brackets after ≈: the same amount, converted by molar mass. Read-outs that look alike come from different tables or passages of the source.

Legend:
[1] = test system: Escherichia coli ATCC 25922; assay: microbe, parasite or virus in culture; assay type: cell-based; conditions: for EC90: Escherichia coli, ATCC25922, no enzyme
Procedure: (§1) Escherichia coli strain 25922 was cultured from glycerol stocks to logarithmic growth in cation adjusted Mueller-Hinton broth at 37° C. in an atmospheric environment and diluted in cation adjusted Mueller-Hinton broth to achieve a starting in well concentration of 5×10^5 CFU/mL. Serial 2-fold dilution of antimicrobial compounds were prepared in cation adjusted Mueller-Hinton broth to achieve final in well concentration of 128 μg/mL to 0.13 μg/mL for ampicillin and 4 μg/mL 4 ng/mL in the absence or presence of serial 10-fold dilutions of P1A, P3A, or P4A β-lactamase standard, 5 pg/mL to 50 ng/mL for ampicillin and […] to 500 ng/mL for ceftriaxone, ceftazidime, meropenem, cefepime, cefazolin, amp/sulbactam, cefoperazone, cefotaxime, and cefuroxime. Antibiotics were either added to the P1A and incubated for 30 min at 37° C. (pre-incubation) prior to addition of bacteria, or added to the plates following the addition of P1A, P3A, P4A, and bacteria (simultaneous). All concentrations and combinations were evaluated in triplicate in a 96-well plate format that contained media only, compound plus media only (colorimetric control), and untreated bacterial controls.
Next, the 90% effective inhibitory concentration (EC90) of ampicillin, ceftriaxone, ceftazidime, meropenem, cefepime, cefazolin, amp/sulbactam, cefoperazone, cefotaxime, and cefuroxime against Escherichia coli was determined in the absence and presence of P1A, P3A, or P4A β-lactamase. For the purposes of these studies, the stated effective concentration was the initial concentration of ampicillin, ceftriaxone, ceftazidime, meropenem, cefepime, cefazolin, amp/sulbactam, cefoperazone, cefotaxime, and cefuroxime added at the beginning of the experiment, and not a concentration measured during the course of the experiment or at the end of the incubation period.
Specifically, the assay was performed by diluting (2-fold steps) the chosen antibiotic across the rows of a 96 well dish. The MIC was determined as the point at which the diluted antibiotic transitions from killing to not killing the bacteria (in this case, an E. coli strain that is sensitive to all antibiotics). P1A, P3A, and P4A were diluted (10 fold steps) down the columns (the β-lactamase concentrations increased down the columns). […] The latter point was used as the cut-off point. […] However, for this assay, the absolute MIC is not the most important parameter. The most relevant readout was the β-lactamase concentration at which the apparent MIC increases to the maximum amount of antibiotic tested.
(§2) E coli 29522 was incubated overnight in the presence of serial dilutions of antibiotic and the indicated amounts of β-lactamase protein from cell culture supernatants in a 96 well plate. Bacterial density (OD625) of the cultures was measured and the concentration at which the density was reduced by 90% relative to an untreated bacterial control (EC90) was determined. The assay was performed on two separate days and the data reported as Rep1 and Rep2. NA=not assayed.
as §2, with “determined.” for “determined. The assay was performed on two separate days and the data reported as Rep1 and Rep2. NA=not assayed.”

[2] = test system: Escherichia coli ATCC 25922; assay: microbe, parasite or virus in culture; assay type: cell-based; conditions: for EC90 / EC50: Escherichia coli, ATCC25922, no enzyme
[3] = test system: Escherichia coli ATCC 25922; assay: Microbroth dilution: EC50 of ampicillin and ceftriaxone in absence and presence of P1A; assay type: cell-based; conditions: Escherichia coli, ATCC25922, P1A 0, read-out: Ampiellin EC50
Procedure: as §1
The 50% effective inhibitory concentration (EC50) of ampicillin and ceftriaxone against Escherichia coli was determined in the absence and presence of P1A β-lactamase. For the purposes of these studies, the stated effective concentration was the initial concentration of ampicillin or ceftriaxone added at the beginning of the experiment, and not a concentration measured during the course of the experiment or at the end of the incubation period.
Antibiotics were either added to the P1A and incubated for 30 min at 37° C. (Pre-incubation) prior to addition of bacteria, or added to the plates following the addition of P1A and bacteria (Simultaneous). All concentrations and combinations were evaluated in triplicate in a 96-well plate format. Following overnight incubation, the 0D625 of the plates was measured in a Spectramax 384 plate reader and the data were imported into a customized Excel spreadsheet for the determination of the 50% effective inhibitory concentration at (EC50) by linear regression analysis. For the purposes of these studies, the stated effective concentration is the initial concentration of ampicillin or ceftriaxone added at the beginning of the experiment, and not a concentration measured during the course of the experiment or at the end of the incubation period.
Antibiotics were either added to the P1A and incubated for 30 min at 37° C. (Pre-incubation) prior to addition of bacteria, or added to the plates following the addition of P1A and bacteria (Simultaneous). All concentrations and combinations were evaluated in triplicate in a 96-well plate format. Following overnight incubation, the OD625 of the plates was measured in a Spectramax 384 plate reader and the data were imported into a customized Excel spreadsheet for the determination of the 50% effective inhibitory concentration (EC50).
Antibiotics were added to the P1A bacteria (Simultaneous). All concentrations and combinations were evaluated in triplicate in a 96-well plate format. Following overnight incubation, the OD625 of the plates was measured in a Spectramax 384 plate reader and the data were imported into a customized Excel spreadsheet for the determination of the 50% effective inhibitory concentration at (EC50) by linear regression analysis.

[4] = Preliminary enzymatic activity of P1A mutants from B. subtilis supernatants; assay type: biochemical; conditions: B. subtilis supernatant, one substrate concentration
Procedure: β-lactamase activity of the mutants was further characterised from E. coli cell lysates and B. subtilis growth supernatant with ampicillin, cefotaxime, ceftriaxone, cefuroxime, ceftazidime, meropenem and imipenem. The activities were determined using only one substrate concentration of each antibiotic tested. Selection of the antibiotic concentration was done with the antibiotic concentration as high as was practical, [S]>>Km. Based on these preliminary experiments, more accurate kinetic parameters were determined for a couple of mutants from both the site-directed and the random mutagenesis research lines. All the mutant enzymes selected for more detailed study were expressed in the B. subtilis host strain RS303. The cells carrying the mutated proteins were grown in minimal medium over-night after which the cells were harvested and the supernatant was concentrated in 1:10 with Amicon Ultra-4 centrifugal devices, MWCO 10000 (Amicon). Protein concentration in each culture supernatant was estimated from 12% SDS-PAGE (Criterion XT Bis-Tris, BioRad, Calif., USA) using the P1A reference material A18K31 as a standard. Kinetic parameters were measured for cefotaxime, ceftriaxone and cefuroxime for each selected mutant strain. The site-directed mutants were designed to hydrolyze cefotaxime and random mutants were screened with ceftriaxone, which made these antibiotics natural choices for determining kinetic parameters.

[5] = test system: E. coli (ATCC 25922); assay: Microtiter plate antibiotic degradation activity assay; assay type: cell-based
Procedure: P1A and P4A were screened for degradation of ampicillin, ceftriazone, cefotaxime, cefozolin, cefuroxime, cefoperazone, cefepime, and ceftazidime in a microtiter plate activity assay that was designed to mimic the activity of the beta-lactamases in the gut in the presence of high antibiotic concentrations. The assay was performed by mixing 10, 100 or 1000 μg/ml of the indicated antibiotics with P1A or P4A, at concentrations of 10 or 100 ng/ml. Plates were either incubated for one hour at 37° C. after which E. coli (ATCC 25922) was added, or E. coli was added immediately after the addition of the beta-lactamase enzymes. The plates were incubated overnight and the bacterial growth quantified by measuring the absorbance at 625 nm (OD625) in a Spectramax 384 Plus plate reader. The analysis was performed twice for each beta-lactamase and antibiotic. The beta-lactamase activity of the culture supernatants was determined as positive or negative based on the appearance of bacterial growth in the individual wells. An OD625 of 1.0 or greater indicated maximal bacterial growth, therefore complete antibiotic degradation and high beta-lactamase activity.

[6] = no enzyme, 2nd value, high test 2 μg/mL

In the case of CO/N=C(\C(=O)N[C@@H]1C(=O)N2C(C(=O)O)=C(COC(N)=O)CS[C@H]12)c1ccco1 [Cefuroxime], the EC90 ([1]; 1st value, high test 128 μg/mL, read-out: Cefuroxime EC90) is reported as 4 µg/mL, the “Cefuroxime EC90” value ([1]; no enzyme, 1st value, high test 128 μg/mL) is reported as 2.0 µg/mL and the EC90 ([2]; 2nd value, high test 128 μg/mL, read-out: Cefuroxime EC90) is reported as 4 µg/mL (≈ 9.43 µM). For the same molecule, the “Cefuroxime EC90” value ([2]; no enzyme, 2nd value, high test 128 μg/mL) was 2.0 µg/mL.

In the case of CCN1CCN(C(=O)N[C@@H](C(=O)N[C@@H]2C(=O)N3C(C(=O)O)=C(CSc4nnnn4C)CS[C@H]23)c2ccc(O)cc2)C(=O)C1=O [Cefoperazone], the “Cefoperazone EC90” value ([1]; no enzyme, 1st value, high test 8 μg/mL) is reported as 0.25/0.25 μg/mL, the EC90 ([2]; 1st value, high test 8 μg/mL, read-out: Cefoperazone EC90) is reported as 0.25 µg/mL (≈ 0.387 µM) and the EC90 ([2]; 2nd value, high test 8 μg/mL, read-out: Cefoperazone EC90) is reported as 0.13 µg/mL (≈ 0.201 µM). For the same molecule, the “Cefoperazone EC90” value ([2]; no enzyme, 2nd value, high test 8 μg/mL) was 0.25/0.25 μg/mL.

CC1(C)S[C@@H]2[C@H](NC(=O)[C@H](N)c3ccccc3)C(=O)N2[C@H]1C(=O)O [Ampicillin] gave an EC50 ([3]; pre-incubation, Table 12) of 16 µg/mL, an EC50 ([3]; pre-incubation, Table 13) of 16 µg/mL and an EC50 ([3]; simultaneous, Table 12) of 16 µg/mL. It also gave an EC50 ([3]; simultaneous, Table 13) of 16 µg/mL, an EC50 ([3]; simultaneous, Table 14 repeat analysis) of 16 µg/mL and an EC50 ([2]; Rep 1, Table 15, read-out: Ampiellin EC50) of 2 µg/mL (≈ 5.72 µM). For the same molecule, the EC50 ([2]; Rep 2, Table 15, read-out: Ampiellin EC50) was 4 µg/mL (≈ 11.4 µM).

In the case of IS203: P1A with T160F, the “AMP = ampicillin enzymatic activity” value [4] is reported as 0.01 multiples of P1A, the “CAZ = ceftazidime enzymatic activity” value [4] is reported as 0.13 multiples of P1A and the “CRO = ceftriaxone enzymatic activity” value [4] is reported as 0.00 multiples of P1A. For the same molecule, the “CTX = cefotaxime enzymatic activity” value [4] was 0.01 multiples of P1A and the “CXM = cefuroxime enzymatic activity” value [4] was 0.00 multiples of P1A.

In the case of CC(C)(O/N=C(\C(=O)N[C@@H]1C(=O)N2C(C(=O)[O-])=C(C[n+]3ccccc3)CS[C@H]12)c1csc(N)n1)C(=O)O [Ceftazidime], the EC50 ([2]; 1st value, high test 4 μg/mL, read-out: Ceftazidime EC50) is reported as 0.13 µg/mL (≈ 0.238 µM), the “Ceftazidime EC50” value ([2]; no enzyme, 1st value, high test 4 μg/mL) is reported as 0.13/0.13 μg/mL and the “Ceftazidime EC50” value ([2]; no enzyme, 2nd value, high test 4 μg/mL) is reported as 0.5 µg/mL.

Molecule Cc1nnc(SCC2=C(C(=O)O)N3C(=O)[C@@H](NC(=O)Cn4cnnn4)[C@H]3SC2)s1 [Cefazolin] has an EC90 ([2]; 1st value, high test 64 μg/mL, read-out: Cefazolin EC90) of 2 µg/mL (≈ 4.4 µM) and an EC90 ([2]; 2nd value, high test 64 μg/mL, read-out: Cefazolin EC90) of 2 µg/mL (≈ 4.4 µM).

In the case of C[C@@H](O)[C@H]1C(=O)N2C(C(=O)O)=C(S[C@@H]3CN[C@H](C(=O)N(C)C)C3)[C@H](C)[C@H]12 [Meropenem], the EC50 ([2]; 1st value, high test 1 μg/mL, read-out: Meropenem EC50) is reported as 0.06 µg/mL (≈ 0.156 µM), the EC50 ([2]; 2nd value, high test 1 μg/mL, read-out: Meropenem EC50) is reported as 0.06 µg/mL (≈ 0.156 µM) and the “Meropenem EC50” value ([2]; no enzyme, 2nd value, high test 1 μg/mL) is reported as 0.03 µg/mL.

In the case of CO/N=C(\C(=O)N[C@@H]1C(=O)N2C(C(=O)[O-])=C(C[N+]3(C)CCCC3)CS[C@H]12)c1csc(N)n1 [Cefepime], the EC50 ([2]; 1st value, high test 2 μg/mL, read-out: Cefepime EC50) is reported as 0.06 µg/mL (≈ 0.125 µM), the EC50 ([2]; 2nd value, high test 2 μg/mL, read-out: Cefepime EC50) is reported as 0.03 µg/mL (≈ 0.0624 µM) and the “Cefepime EC50” value [2, 6] is reported as 0.03/0.03 μg/mL.

In the case of CO/N=C(\C(=O)N[C@@H]1C(=O)N2C(C(=O)O)=C(COC(C)=O)CS[C@H]12)c1csc(N)n1 [Cefotaxime], the EC90 ([1]; 2nd value, high test 2 μg/mL, read-out: Cefotaxime EC90) is reported as 0.008 µg/mL, the EC90 ([2]; 1st value, high test 2 μg/mL, read-out: Cefotaxime EC90) is reported as 0.004 µg/mL (≈ 0.00878 µM) and the “Cefotaxime EC90” value ([2]; no enzyme, 1st value, high test 2 μg/mL) is reported as 0.004/0.004 μg/mL. For the same molecule, the “Cefotaxime EC90” value [2, 6] was 0.004/0.004 μg/mL.

B1: IS288: P1A with A232G A237S A238G S240D D276N; SEQ ID NO: 5 (protein)
chain: EMKDDFAKLEEQFDAKLGIFALDTGTNRTVAYRPDERFAFASTIKALTVGVLLQQKSIEDLNQRITTRDDLVNYNPITEKHVDTGMTLKELADASLRYSDNAAQNLILKQIGGPESLKKELRKIGDEVTNPERFEPELNEVNPGETQDTSTARALVTSLRAFALEDKLPSEKRELLIDWMKRNTTGDALIRAGVPDGWEVGDKTGSGDYGTRNDIAIIWPPKGDPVVLAVLSSRDKKDAKYDNKLIAEATKVVMKALNMNGK
In the case of B1, the inhibition by sulbactam ([1]; amp/sulbactam data) is reported as “effectively inhibited”, the “activity relative to P1A, all antibiotics except ampicillin” value ([5]; enzyme 10 or 100 ng/ml, FIG. 8) is reported as “imporved activity relative to P1A” and the “cephalosporinase activity boosted relative to P1A” value ([5]; modification of five amino acids in P1A) is reported as 10-1000 fold. The “improvement of activity for ceftazidime” value ([2]; data showed activity at 500 ng/ml) was 10 fold and the “β-lactamase activity in comparison to P1A” value ([2]; for ceftriaxone, cefotaxime, ceftazidime, cefazolin, cefoperazone and cefuroxime) was no less than 10 fold.
